Assay results taken from patent US7897781B2, “Cold menthol receptor-1 antagonists” (Janssen Pharmaceutica NV, priority 2006, dated 2011).
Values joined by “and” are separate entries in the source; they are usually repeats but may differ in a detail not shown here. Equal values may be shown once.

Experiments:
Sprague-Dawley rats = assay: CFA-induced paw radiant heat hypersensitivity; type: in vivo, rat; details: 30 mg/kg p.o.
Method: Intraplantar injection of Complete Freund's Adjuvant (CFA) in rodents results in a long-lasting inflammatory reaction, characterized by a pronounced hypersensitivity to both thermal and mechanical stimuli. This hypersensitivity peaks between 24-72 hours following injection and can last for several weeks. […] This paradigm also may be conducted with a multiple dosing or a prophylactic dosing regime designed to alter the course of hyperalgesia development. This test predicts the analgesic, anti-allodynic and antihyperalgesic effect of numerous effective clinical agents, including NSAIDS such as acetaminophen, aspirin and ibuprofen, and opioids such as morphine.
Each rat was placed in a test chamber on a warm glass surface and allowed to acclimate for approximately 10 minutes. A radiant thermal stimulus (beam of light) was then focused through the glass onto the plantar surface of each hind paw in turn. The thermal stimulus was automatically shut off by a photoelectric relay when the paw was moved or when the cut-off time was reached (20 seconds for radiant heat at ˜5 Amps). An initial (baseline) response latency to the thermal stimulus was recorded for each animal prior to the injection of CFA. Twenty-four hours following intraplantar CFA injection, the response latency of the animal to the thermal stimulus was then re-evaluated and compared to the animal's baseline response time. […] Immediately following the post-CFA latency assessment, test compound or vehicle (usually Solutol, hydroxypropyl methylcellulose, hydroxypropyl beta-cyclodextrin or PEG-400) was administered i.p. or p.o. to rats. […] The percent reversal (% R) of hypersenstivitiy was calculated according to the following formula: % Reversal=(Treatment Response−CFA Response)/(Baseline Response−CFA Response)×100.

canine TRPM8 [1] = biological target: T1, canine TRPM8 (Canis lupus familiaris, UniProt Q1A7N1); assay: In vitro canine TRPM8 functional assay (Ca2+-sensitive dye, icilin activation; Table 4 TRPM8 Screening); type: cell-based; details: HEK293 cells expressing canine TRPM8, icilin activation; for % I (0.5 μM): compound at 0.5 μM
T1 construct: expressed in transfected cells
Method: The functional activity of compounds of Formula (I) was determined by measuring changes in intracellular calcium concentration using a Ca^2+-sensitive fluorescent dye. The changes in fluorescent signal were monitored by a fluorescence plate reader, either a FLIPR™ (Molecular Devices) or FDSS (Hamamatsu).
HEK293 cells stably expressing canine TRPM8 were routinely grown as monolayers in Dulbecco's minimum essential medium supplemented with 10% FBS, 1 mM L-glutamine, 100 units/mL penicillin, 100 ug/mL streptomycin and 400 μg/mL G418. Cells were maintained in 5% CO2 at 37° C. At 24 hrs prior to assay, cells were seeded in clear-base poly-D-lysine coated 384-well plates (BD Biosciences, NJ, USA) at a density of 5,000 cells per well in culture medium and grown overnight in 5% CO2 at 37° C. On assay day, growth media was removed and cells were loaded with Calcium 3 Dye (Molecular Devices) for 35 min at 37° C., under 5% CO2 and then for 25 min at room temperature and atmosphere. Subsequently, cells were tested for agonist-induced increases in intracellular Ca^2+ levels using FLIPR™ or FDSS. Cells were challenged with a compound of Formula (I) (at varying concentrations) and intracellular Ca^2+ was measured for 5 min prior to the addition of icilin to all wells to achieve a final concentration which produces approximately an 80% maximal response.
Basal FI was subtracted prior to normalizing data to percent of maximal response. Curves were generated using the average of quadruplicate wells for each data point, were analyzed using nonlinear regression of either sigmoidal dose response or sigmoidal dose response (variable slope). Finally, the EC50 and IC50 values were calculated with the best-fit dose curve determined by GraphPad Prism.

rats = assay: Reversal of icilin-induced behaviors in rats; type: in vivo, rat; details: 30 mg/kg p.o., 1 h post-icilin
Method: In this paradigm, icilin-induced shaking was counted for 10 minutes followed by administration of a compound of Formula (I). The diminution of shaking behavior is represented as a percent inhibition relative to icilin-induced shakes in the absence of test compound administration, as described by the following formula: % Inhibition=[1−(WDS count following test compound dose/WDS count prior to test compound dose)]×100.

male SD rats = assay: Chronic constriction injury (CCI)-induced model of neuropathic pain, acetone-induced hypersensitivity; type: in vivo, rat; details: 30 mg/kg p.o., preRx 1 hr
Method: Through the mesh floor a series of five applications of acetone (0.05 mL/application) was sprayed onto the bottom of the paw using a multidose syringe device. A positive response took the form of an abrupt withdrawal or lifting of the paw. The percentage of positive responses from the five trials represented the individual's overall response that was then averaged over the entire treatment group. […] An ascending dose response relationship (as in Table 10 below) was generated by addition of successive doses of test compound followed by re-assessment of behavior.

canine TRPM8 [2] = biological target: T1, canine TRPM8; assay: TRPM8 patch clamp assays; type: cell-based; details: whole-cell patch clamp, HEK293
Method: For patch clamp experiments, HEK293 cells stably transfected with canine TRPM8 were cultured in DMEM supplemented with 10% fetal bovine serum, 100 units/ml penicillin, 100 μg/ml streptomycin and 1 mg/ml G418. Cells were maintained at 37° C. and in 5% CO2.
The extracellular solution contained (in mM): NaCl, 132; EGTA, 1; KCl, 5.4; MgCl2, 0.8; HEPES, 10; glucose, 10; pH=7.4. Recordings were performed using the conventional whole-cell patch clamp technique, 1-2 days after plating cells onto glass coverslips at densities appropriate for single cell recording. Currents were amplified by a patch clamp amplifier and filtered at 2 kHz (Axopatch 200B, Molecular Devices, Union City, Calif.). Menthol (100 μM) was applied to the cell at 0.5 ml/min via a gravity-fed perfusion system. […]
In experiments where temperatures were varied, temperature ramps were generated by cooling the perfusate in an in-line cooler (Model SC-20, Warner Instruments, Hamden, Conn.) controlled by a temperature controller (Model CL-100, Warner Instruments). The temperature in the vicinity of the recorded cell was measured with a custom-made miniature thermo-microprobe connected to a monitoring thermometer (Model TH-8, Physitemp, Clifton, N.J.), and sampled using Digidata 1322A and pClamp 9.0 (Molecular Devices), as were the currents concurrently measured in the whole-cell patch clamp mode. […]

T1 sequence (Q1A7N1 1-1104): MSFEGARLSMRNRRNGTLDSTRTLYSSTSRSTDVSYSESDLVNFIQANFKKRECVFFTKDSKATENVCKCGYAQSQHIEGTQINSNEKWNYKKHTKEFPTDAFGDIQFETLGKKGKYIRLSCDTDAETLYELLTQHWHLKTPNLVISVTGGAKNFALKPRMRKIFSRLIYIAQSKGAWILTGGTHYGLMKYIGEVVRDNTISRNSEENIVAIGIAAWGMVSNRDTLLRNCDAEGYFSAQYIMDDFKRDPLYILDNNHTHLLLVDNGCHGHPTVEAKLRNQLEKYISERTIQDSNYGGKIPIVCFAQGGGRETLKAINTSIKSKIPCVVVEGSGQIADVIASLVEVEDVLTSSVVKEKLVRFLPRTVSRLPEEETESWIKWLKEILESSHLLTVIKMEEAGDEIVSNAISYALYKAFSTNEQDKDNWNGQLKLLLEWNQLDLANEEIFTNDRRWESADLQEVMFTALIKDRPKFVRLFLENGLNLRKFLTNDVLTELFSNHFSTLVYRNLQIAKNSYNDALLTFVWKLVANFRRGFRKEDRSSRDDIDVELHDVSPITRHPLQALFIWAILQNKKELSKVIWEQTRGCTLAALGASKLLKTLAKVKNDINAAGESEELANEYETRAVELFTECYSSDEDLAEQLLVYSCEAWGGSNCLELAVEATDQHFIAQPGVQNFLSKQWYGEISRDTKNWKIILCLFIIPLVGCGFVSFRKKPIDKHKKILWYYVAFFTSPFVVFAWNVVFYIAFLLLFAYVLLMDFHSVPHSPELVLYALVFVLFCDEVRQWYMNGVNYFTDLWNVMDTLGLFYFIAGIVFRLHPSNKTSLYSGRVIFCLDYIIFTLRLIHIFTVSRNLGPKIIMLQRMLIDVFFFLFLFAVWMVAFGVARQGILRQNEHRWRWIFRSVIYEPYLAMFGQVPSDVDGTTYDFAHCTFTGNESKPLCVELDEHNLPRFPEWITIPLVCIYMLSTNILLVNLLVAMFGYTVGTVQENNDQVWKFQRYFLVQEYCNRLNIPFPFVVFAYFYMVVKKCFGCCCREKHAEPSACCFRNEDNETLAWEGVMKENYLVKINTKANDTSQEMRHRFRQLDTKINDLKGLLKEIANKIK

| Compound | % Reversal (Sprague-Dawley rats; time 2 h) [%] | % Reversal (Sprague-Dawley rats; time 1 h) [%] | other results |
| --- | --- | --- | --- |
| CCOP(=O)(OCC)C(Cc1ccc(F)c(Cl)c1)c1sc2ccccc2c1Br (racemic) [Cpd 244] | 45 |  |  |
| CCOP(=O)(OCC)C(Cc1ccc(F)c(C(F)(F)F)c1)c1sc2ccccc2c1Cl (racemic) [Cpd 298] |  | 20 | % I (0.5 μM) (canine TRPM8 [1]): 99% |
| CCOP(=O)(OCC)C(Cc1ccc(SC)cc1)c1sc2ccccc2c1Cl (racemic) [Cpd 299] |  | 23 |  |
| CC(C)OP(=O)(OC(C)C)C(Cc1ccc(Cl)c(F)c1)c1sc2ccccc2c1Br (centres unmarked) [Cpd 190] |  | 45 |  |
| CC(C)OP(=O)(OC(C)C)C(Cc1ccc(F)cc1)c1sc2ccccc2c1Br (centres unmarked) [Cpd 197] | 23 |  | % I (1 μM) (canine TRPM8 [1]; compound at 1 μM): 100% |
| CC(C)OP(=O)(OC(C)C)C(Cc1cc(C(F)(F)F)ccc1F)c1sc2ccccc2c1Br (centres unmarked) [Cpd 335] |  | 0 |  |
| CC(C)OP(=O)(OC(C)C)C(Cc1ccc(C(F)(F)F)cc1)c1sc2ccccc2c1Br (centres unmarked) [Cpd 336] |  | 64 |  |
| (S)-[1-(3-Bromo-benzo[b]thiophen-2-yl)-2-(4-fluoro-phenyl)ethyl]-phosphonic acid diisopropyl ester [Cpd 239] | 36 |  | % I (0.5 μM) (canine TRPM8 [1]): 103, 103%; IC50 (canine TRPM8 [1]; eight-point dose-response): 37 nM and 27 nM and 31 nM; % Inhibition (rats): 48.4%; % of Allodynic Baseline (male SD rats): 29.4%; IC50 (canine TRPM8 [2]; read-out: Cold (10° C.) IC50, mode of activation cold 10° C.): 5.8 nM; IC50 (canine TRPM8 [2]; read-out: Menthol (100 μM) IC50, mode of activation menthol 100 μM, 22° C.): 3 nM |
| (S)-[1-(3-Bromo-benzo[b]thiophen-2-yl)-2-(4-trifluoromethoxy-phenyl)-ethyl]-phosphonic acid diisopropyl ester [Cpd 236] | 25 |  |  |
